One series relates to sperm. The settings on record: cyclophosphamide 40 mg/kg once a day 5 days. The method, then: Experimental animals: 60 clean-grade healthy male ICR mice having the average weight of 18-20 g, purchased from the Comparative Medicine Center of Yangzhou University.
Reagents: Test agent, Compound 2, provided by Guangzhou Insighter Biotechnology Co., Ltd., was prepared into a suspension of the required concentration with 1.0% sodium carboxymethyl cellulose before use; the mutagenic positive control article of cyclophosphamide with the content of 99.00%; other reagents include sodium chloride, methanol, and eosin, all of analytical grade; self-prepared physiological saline; self-prepared eosin aqueous solution (2%).
The test article, Compound 2 was diluted with 1.0% sodium carboxymethyl cellulose as a solvent, and it was given by oral in different concentrations and the same volume. There is also a positive control and a negative (solvent) control. The cyclophosphamide was selected as the positive control (40 mg/kg).
Grouping of experimental animals: 60 healthy male mice were individually weighed, labeled and numbered, and they were divided into 5 groups with 12 mice in each group using a completely random method. It was ensured that 10 animals in each group survive for sampling and film making after administration.
Administration: The administration method is carried out according to GB15193.7-2003. The test group, the negative control and the positive control are all given the test article by oral once a day for 5 consecutive days. The weight of the mouse for each administration was weighed, and the volume of the test article that each mouse should administer was calculated according to the requirements of the mouse 0.2 mL/10 g b.w.
Sampling and sample preparation: The mice were sacrificed by cervical dislocation on the Day 35 after the first administration, and sampling and film making were performed. 10 mice were sampled in each dose group. The abdominal cavity was cut, the epididymis on both sides were separated and extracted, and put in a petri dish containing 2 mL of normal saline; The mice were longitudinally cut with ophthalmological scissors for 2 times, the normal saline in it was pipetted with a straw for several times, and let stand for 3 min; the tissue fragments were filtered with a 4-layer of lens cleaning paper, 1 drop of the filtrate was drawn onto the glass slide, the slide was pushed with 4 slides per mouse; the slide in the air dried naturally, and fixed with methanol for 10 minutes, and dried; stained with 2% eosin for 1 h, the dye solution was gently washed off with water, and it was dried naturally before microscopic examination.
Data collation and analysis: The number of normal sperm, the number of abnormal sperm and the number of various types of abnormal sperm were read and counted in each dose group of mice. The sperm abnormality rate (%) of mice in each dose group and the percentage (%) of various types of abnormal sperm were calculated, and the standard deviation of the sperm abnormality rate of mice was also calculated in each dose group. Calculation as follows:
The sperm abnormality rate of mice in each dose group was statistically compared with the sperm abnormality rate of mice in the negative (solvent) control. The experimental data was processed by SPSS 11.0 statistical software, and the analysis results were expressed as x±SD, and the incidence of sperm abnormalities was statistically processed according to the X^2 (α=0.05).
If the dose of the test group has caused the animal to die, while the sperm abnormality has not increased, the result can be judged to be negative.

For series [1], the system named is bone marrow cells of mice. The following applies: cyclophosphamide 40 mg/kg intraperitoneal, n = 5. As for the experimental part:
Experimental animals: 60 clean and healthy ICR mice have the average weight of 18-20 g, half female and half male, purchased from the Comparative Medicine Center of Yangzhou University. […]
Specimen preparation: 6 hours after the second administration of the test article, […] and 5 […] in each group were sacrificed by cervical dislocation. […] The fixed smear is stained with Giemsa application solution for 15-30 min, rinsed with distilled water, dried, and gets ready for inspection.
The film was read by double-blind method, the number of polychromatic red blood cells (PCE) of each mouse was recorded in each group, including the number of micronucleus PCE cells, and the number of mature red blood cells (RBC), and the like. The number of polychromatic red blood cells (PCE) was calculated, including the number of micronucleus PCE cells and the number of mature red blood cells (RBC) in each test group of male and female mice respectively, and the results were listed.
The experimental data is processed by SPSS 11.0 statistical software, and the analysis result is expressed as x±SD, and the incidence of micronucleus is statistically processed according to the X^2 test (α=0.05).

The structures appear in SMILES notation. Where two headings read alike, the source gives them in different places.

In the case of `O=P1(N(CCCl)CCCl)NCCCO1` (stereo not drawn) [Positive control, cyclophosphamide, reference compound], in the series on sperm (Day 35, 10000 sperm), the “Total number of abnormal sperm” value is on record as 559, the “abnormal sperm: Amorphous” value came out at 248, the “abnormal sperm: Banana shape” value is given as 91 and the “abnormal sperm: Double head” value came out at 13. In addition, in the series with sperm (Day 35, 10000 sperm), the “abnormal sperm: Double tail” value was found to be 25, the “abnormal sperm: Fat head” value was found to be 21, the “abnormal sperm: Fold tail” value is given as 12 and the “abnormal sperm: No hook” value is listed as 149. Besides, in the series with sperm (Day 35, n = 10), the “Number of Abnormal sperm (x ± SD)” value came out at 55.90 and the Sperm deformity is 5.26 ± 0.18%. In addition, the “PCE micronucleus rate” value in series [1] (female mice) is 15.00 ± 2.42 ‰. For the same compound, the PCE micronucleus rate in series [1] (male mice) is reported as 15.20 ± 2.37 ‰.

Source of the values: patent US12589085B2, “Use of diaminoguanidine derivative and feed composition thereof in preparation of veterinary drug” (priority 2019, dated 2026).
